According to publication PMC10285648, “iTAG an optimized IMiD-induced degron for targeted protein degradation in human and murine cells” (iScience, 2023):

Columns and labels:
[1] = tested on: N-terminally tagged cMYC, RBM39, BRD4 (Flag-HA-DCD23 or Flag-HA-FKBP12^[F36V]); assay: Western blotting, iTAG versus dTAG fused proteins in SUM159; format: cell-based, human; conditions: SUM159, dTAG-13 on dTAG, CC220 on iTAG
Procedure: The fusion constructs were stably expressed in SUM159 cells and loss of protein was determined by western blotting.
The protein lysates were probed for HA using western blotting. […] The protein lysates were probed for HA using western blotting. […] Median EGFP intensity was measured in each condition using flow cytometry. (3 independent experiments, represented as mean ± SD).
The dTAG system has also been adapted to direct targets to the E3 CRL2^VHL using the PROTAC dTAG^V-1^16. […] We evaluated the degradation N-terminally tagged cMYC and RBM39 dTAG^V-1, we included BRD4 as a control as it was reported to be a well degraded target in the initial dTAG optimization (Figure 3C).[15]
For the pHAGE-PGK constructs: DCD23, SuperDegron and FKBP12^F36V were separately cloned into a pHAGE-PGK DEST backbone. cDNA encoding the indicated protein was then cloned from pENTR221 into the pHAGE-PGK-DCD23, pHAGE-PGK-SuperDegron or pHAGE-PGK-FKBPF36V DEST vector using Gateway cloning. SUM159 cells were transduced with the indicated lentivirus and selected with puromycin.
Cells were lysed with SDS lysis buffer (2% SDS, 10% Glycerol, 50mM Tris pH 6.8) and boiled at 95°C for 30min. Protein concentration was measured using Pierce BCA Protein Assay Kit (ThermoFischer) following manufacturer’s recommendations. Samples were ran in NuPAGETM 10% Bis-Tris Midi electrophoresis gels (Invitrogen) using NuPAGETM MES SDS running buffer (ThermoFischer Scientific). Proteins were subsequently transferred to an Immobilon-P polyvinylidene Difluoride (PVDF) membrane (Merck Millipore) using the wet-transfer method (Bio-Rad) in a transfer buffer consisting of 20% (v/v) methanol and 10% protein electrophoresis buffer (24.77 mM Tris and 0.192 M glycine).
For western blotting membranes were blocked in a solution of 5% (w/v) bovine serum albumin (BSA; Sigma-Aldrich) dissolved in TBS-0.1% Tween 20 (Sigma-Aldrich) then incubated at 4°C overnight with the primary antibodies diluted in 5% (w/v) BSA/TBS-T. The membranes where then washed and incubated with anti-mouse and/or anti-rabbit secondary antibodies (LI-COR Biosciences) for 2h at RT diluted in 5% (w/v) BSA/TBS-T then washed and imaged using the LI-COR Odyssey (LI-COR Biosciences). Images were analyzed using Image Studio Lite software (LI-COR Biosciences).

Flag-HA-DCD19-EGFP = assay: Degradation of Flag-HA-DCD19-EGFP in murine cells; format: cell-based, mouse; conditions: 2208L and PyMT, 24 h, western blotting
Procedure: Given the high degradation efficiency of DCD23 in human cells, we sought to test the applicability of this system in murine cells.
(§1) The protein lysates were probed for EGFP using western blotting. […] EGFP signal was then measured using flow cytometry. (3 independent experiments, normalized to the control and represented as mean ± SD). […] Data are plotted as Log2 fold change relative to DMSO versus Log10 of p value.

[2] = tested on: Flag-HA-DCD23-RBM39, Flag-HA-DCD23-SMS; assay: Quantitative TMT proteomics of CT26 expressing iTAG-tagged RBM39 or SMS; format: cell-based, mouse; conditions: CT26, 10uM, 8h
Procedure: as §1
We then tested the degradation of RBM39 (nuclear) and SMS (cytoplasmic) N-terminally tagged with iTAG (DCD23) in CT26 and AT3 ([…]) (Figures 5C–5E).
Samples for quantitative proteomics were prepared using the SimPLIT workflow.[60] […] Samples were bath sonicated for 5 min, incubated at RT for 45 min and protein concentration was measured with the Bradford Protein Assay (Biorad) according to manufacturer instructions. […]
LC-MS analysis was performed on the Dionex Ultimate 3000 UHPLC system coupled with the Orbitrap Lumos mass spectrometer (Thermo Scientific). Samples were analyzed with the EASY-Spray C18 capillary column (75 μm × 50 cm, 2 μm) at 50°C. […] MS3 quantification was obtained with higher-energy collisional dissociation (HCD) fragmentation of the top 5 most abundant CID fragments isolated with synchronous precursor selection (SPS). […]
The SEQUEST-HT search engine was used to analyze the acquired mass spectra in Proteome Discoverer 2.4 (Thermo Scientific) for protein identification and quantification. […]

O=C1CC[C@H](N2Cc3c(OCc4ccc(CN5CCOCC5)cc4)cccc3C2=O)C(=O)N1 [CC220, Iberdomide]
concentrations at which targets are degraded [1]: 0.01 to 10 µM
time of onset of degradation of cMYC and RBM39 ([1]; 1, 2 or 4h): ≤ 1 h
degradation of DCD19 tagged EGFP (Flag-HA-DCD19-EGFP): not degraded
degradation of iTAG (DCD23) tagged RBM39 and SMS [2]: robust degradation
off-targets in proteome [2]: without any detected off-targets
